Data published in publication PMC12013366, “In vitro evaluation of the immunogenic potential of gramicidin S and its photocontrolled analogues” (RSC Medicinal Chemistry, 2025).
Non-standard residues stand in square brackets, D forms with d. Residues, ends and D or L forms follow the SMILES beside them. Orn = NCCC[C@H](N)C(=O)O

Assays:
[1] = test system: calreticulin (CALR) on HepG2 cells; test: CALR exposure on the cell surface, fluorescence microscopy; type: cell-based, human; settings: HepG2 monolayer; 32 μM; 24 h; Alexa Fluor 647 anti-CALR antibody, normalized to non-treated cells; n=2
Description: (§1) We performed fluorescence microscopy using an Alexa Fluor 647 anti-CALR antibody for quantifying the CALR exposure on the surface of cells. Confluent monolayer 4T1, HeLa, HepG2 and MDA-MB-231 cell cultures were incubated with GS and GS-derived peptides for 24 h followed by fixation, staining with the antibody and microscopic observation. Using the images, we calculated the total levels of the fluorescence signal per cell in each sample. […] To examine the time dependence of the CALR exposure, cytofluorimetric experiments were conducted on the MDA-MB-231 cell line (Fig. 9) using an Alexa Fluor 647 anti-CALR antibody. In this experiment, 30 min, 3 h, 6 h and 24 h were the time points for monitoring the fraction of cells expressing CALR on their surface.
(§2) The cells were seeded (10 000 cells per well for 4T1; 20 000 cells per well for HeLa and MDA-MB-231; 30 000 cells per well for HepG2) in 200 μL of appropriate medium in a 96-well black-wall transparent-bottom plate (6055302, Revvity). After 24 h incubation, the medium was aspired and 100 μL of fresh medium was added. The compounds (64, 32, 16 and 8 μM for closed photoforms; 32, 16, 8 and 4 μM for open photoforms and GS) along with the negative (1% DMSO) control were prepared in DMEM and dispensed in 100 μL per well for 24 h. Then 50 μL of 20% paraformaldehyde (28908, Thermo Fisher) was added for 15 min for fixation. […]

[2] = test system: calreticulin (CALR) on MDA-MB-231 cells; test: as above; type: cell-based, human; settings: MDA-MB-231 monolayer; 8 and 16 μM; 24 h; Alexa Fluor 647 anti-CALR antibody, normalized to non-treated cells; n=2
Description: as §1, §2

[3] = test system: calreticulin (CALR) on 4T1 cells; test: as above; type: cell-based, murine; settings: 4T1 monolayer; 8 and 16 μM; 24 h; Alexa Fluor 647 anti-CALR antibody, normalized to non-treated cells; n=2
Description: as §1, §2

[4] = test system: membrane-bound CALR on MDA-MB-231 cells; test: CALR exposure, cytofluorimetric measurements; type: cell-based, human; settings: concentrations higher than IC50 (16 and 32 μM), flow cytometry
Description: We performed fluorescence microscopy using an Alexa Fluor 647 anti-CALR antibody for quantifying the CALR exposure on the surface of cells. Confluent monolayer 4T1, HeLa, HepG2 and MDA-MB-231 cell cultures were incubated with GS and GS-derived peptides for 24 h followed by fixation, staining with the antibody and microscopic observation. Using the images, we calculated the total levels of the fluorescence signal per cell in each sample. […] While practically no enhancement in CALR exposure could be detected in the HeLa cell culture, a 4–7-fold enhancement is observed for HepG2 at 32 μM of GS, LMB002-open and LMB033-open. Then 8 and 16 μM of GS caused a 3-fold increase of CALR exposure in breast cancer cell lines 4T1 and MDA-MB-231. We noted no direct dose dependence of CALR release in our experiments. It may stem from the difference in the kinetics of CALR exposure. To examine the time dependence of the CALR exposure, cytofluorimetric experiments were conducted on the MDA-MB-231 cell line (Fig. 9) using an Alexa Fluor 647 anti-CALR antibody. In this experiment, 30 min, 3 h, 6 h and 24 h were the time points for monitoring the fraction of cells expressing CALR on their surface.
This is different from the release kinetics of ATP, which was released from the cytosol of the cells with compromised plasma membranes almost immediately after the treatment with our peptides. […]

CC(C)C[C@@H]1NC(=O)[C@H](CCCN)NC(=O)[C@H](C(C)C)NC(=O)[C@@H]2CCCN2C(=O)[C@@H](Cc2ccccc2)NC(=O)[C@H](CC(C)C)NC(=O)[C@H](CCCN)NC(=O)[C@H](C(C)C)NC(=O)[C@@H]2CCCN2C(=O)[C@@H](Cc2ccccc2)NC1=O [Gramicidin S, gramicidin S] (cyclo(V[Orn]L[dF]PV[Orn]L[dF]P))
enhancement in CALR exposure [1]: 4–7 fold
increase of CALR exposure [2]: 3 fold
increase of CALR exposure [3]: 3 fold
incubation time after which all cells exposed CALR on their surface [4]: 3 h
